Our source for the MIC, LC50 and Activity values is ChEMBL document CHEMBL3091428, “Synthesis and initial biological evaluation of substituted 1-phenylamino-2-thio-4,5-dimethyl-1H-imidazole derivatives” (Bioorg Med Chem Lett, 2013).

Converted amounts (≈) assume the structure as drawn.

Broadly, the MIC is the lowest concentration found to suppress growth. Read a high MIC as weaker potency. The LC50 is the concentration that kills 50% of the test population.

One data set relates to Pichia kudriavzevii. Nature of the data set: Antimicrobial activity against Candida krusei ATCC 6258 after 24 hrs by broth microdilution method. The class given is functional. The note with it: ATCC 6258, 24 h. On the technique in general: Broth dilution looks for growth in wells or tubes with falling amounts of substance.
The test system of the next data set is Nakaseomyces glabratus. Description: Antimicrobial activity against Candida glabrata ATCC 90030 after 24 hrs by broth microdilution method. In kind it is functional. As to conditions: ATCC 90030, 24 h.
In a further data set the test system is Listeria monocytogenes. Nature of the data set: Antimicrobial activity against Listeria monocytogenes ATCC 19115 after 24 hrs by broth microdilution method. The class given is functional. The note with it: ATCC 19115, 24 h.
A further data set has as its system Candida albicans. Nature of the data set: Antimicrobial activity against Candida albicans ATCC 90028 after 24 hrs by broth microdilution method. The class given is functional. As to conditions: ATCC 90028, 24 h.
Another data set relates to Staphylococcus aureus. Nature of the data set: Antimicrobial activity against Staphylococcus aureus ATCC 25923 after 24 hrs by broth microdilution method. The class given is functional. As to conditions: ATCC 25923, 24 h.
The test system of data set [1] is Enterococcus faecalis. Nature of the data set: Antimicrobial activity against Enterococcus faecalis ATCC 51299 after 24 hrs by broth microdilution method. The class given is functional. The note with it: ATCC 51299, 24 h.
Data set [2] concerns Enterococcus faecalis. Description: Antimicrobial activity against Enterococcus faecalis ATCC 29212 after 24 hrs by broth microdilution method. As to conditions: ATCC 29212, 24 h. In kind it is functional.
The subject of the next data set is Pseudomonas aeruginosa. Nature of the data set: Antimicrobial activity against Pseudomonas aeruginosa ATCC 27853 after 24 hrs by broth microdilution method. In kind it is functional. The note with it: ATCC 27853, 24 h.
A further data set relates to Klebsiella pneumoniae. Nature of the data set: Antimicrobial activity against Klebsiella pneumoniae ATCC 13883 after 24 hrs by broth microdilution method. The class given is functional. The note with it: ATCC 13883, 24 h.
In data set [3] the test system is Escherichia coli. Nature of the data set: Antimicrobial activity against Escherichia coli ATCC 25922 after 24 hrs by broth microdilution method. In kind it is functional. As to conditions: ATCC 25922, 24 h.
For data set [4], the system named is Escherichia coli. Description: Antimicrobial activity against Escherichia coli ATCC 35218 after 24 hrs by broth microdilution method. The note with it: ATCC 35218, 24 h. The class given is functional.
Data set [5] in a line: Toxicity in brine shrimp larvae assessed as mortality after 24 hrs. In kind it is organism-based. As to conditions: artemia salina, in vivo.
Data set [6] deals with Artemia salina. Nature of the data set: Toxicity in brine shrimp larvae assessed as mortality at 50 ug/ml after 24 hrs. The note with it: in vivo. The class given is organism-based.
In data set [7] the test system is Artemia salina. Nature of the data set: Toxicity in brine shrimp larvae assessed as mortality at 100 ug/ml after 24 hrs. In kind it is organism-based. The note with it: in vivo.
The subject of data set [8] is Artemia salina. Description: Toxicity in brine shrimp larvae assessed as mortality at 200 ug/ml after 24 hrs. The class given is organism-based. As to conditions: in vivo.

On to `COc1ccc(C(=O)CSc2nc(C)c(C)n2Nc2ccccc2)cc1OC`, for which the MIC with Pichia kudriavzevii turned out to be 50 mg/L (≈ 126 µM); against Nakaseomyces glabratus, 800 mg/L (≈ 2010 µM); against Listeria monocytogenes, 400 mg/L (≈ 1010 µM); in the data set with Candida albicans it was 200 mg/L (≈ 503 µM); with Staphylococcus aureus it was 200 mg/L (≈ 503 µM); in the data set with Enterococcus faecalis [1], 800 mg/L (≈ 2010 µM). The MIC in the data set on Enterococcus faecalis [2] worked out at 400 mg/L (≈ 1010 µM); with Pseudomonas aeruginosa, 400 mg/L (≈ 1010 µM); against Klebsiella pneumoniae, 400 mg/L (≈ 1010 µM); with Escherichia coli [3] it was 800 mg/L (≈ 2010 µM); in the data set with Escherichia coli [4] it was 200 mg/L (≈ 503 µM).
Regarding `Cc1nc(SCC(=O)c2cccc(F)c2)n(Nc2ccccc2)c1C`, the MIC came to 200 mg/L (≈ 563 µM) with Pichia kudriavzevii; 400 mg/L (≈ 1130 µM) in the data set on Nakaseomyces glabratus; 400 mg/L (≈ 1130 µM) in the data set on Listeria monocytogenes; 400 mg/L (≈ 1130 µM) in the data set with Candida albicans; 400 mg/L (≈ 1130 µM) against Staphylococcus aureus; 400 mg/L (≈ 1130 µM) with Enterococcus faecalis [1]. Besides, the MIC was 400 mg/L (≈ 1130 µM) against Enterococcus faecalis [2]; 400 mg/L (≈ 1130 µM) against Pseudomonas aeruginosa; 400 mg/L (≈ 1130 µM) with Klebsiella pneumoniae; 800 mg/L (≈ 2250 µM) in the data set with Escherichia coli [3]; 400 mg/L (≈ 1130 µM) in the data set on Escherichia coli [4].
Regarding `Cc1nc(SCC(=O)c2ccc(F)cc2)n(Nc2ccccc2)c1C`, the MIC amounted to 200 mg/L (≈ 563 µM) against Pichia kudriavzevii; 400 mg/L (≈ 1130 µM) against Nakaseomyces glabratus; 400 mg/L (≈ 1130 µM) in the data set with Listeria monocytogenes; 400 mg/L (≈ 1130 µM) against Candida albicans; 800 mg/L (≈ 2250 µM) against Staphylococcus aureus; 400 mg/L (≈ 1130 µM) in the data set with Enterococcus faecalis [1]. The MIC against Enterococcus faecalis [2] stood at 400 mg/L (≈ 1130 µM); with Pseudomonas aeruginosa it was 400 mg/L (≈ 1130 µM); in the data set on Klebsiella pneumoniae, 400 mg/L (≈ 1130 µM); in the data set on Escherichia coli [3], 800 mg/L (≈ 2250 µM); against Escherichia coli [4] it was 400 mg/L (≈ 1130 µM).
Take `Cc1nc(SCC(=O)c2ccc(F)c(F)c2)n(Nc2ccccc2)c1C`: the LC50 at 24 h in data set [5] turned out to be 465 mg/L (≈ 1250 µM). In addition, the MIC is 200 mg/L (≈ 536 µM) in the data set with Pichia kudriavzevii; 400 mg/L (≈ 1070 µM) in the data set on Nakaseomyces glabratus; 50 mg/L (≈ 134 µM) against Listeria monocytogenes; 400 mg/L (≈ 1070 µM) in the data set with Candida albicans; 100 mg/L (≈ 268 µM) in the data set with Staphylococcus aureus; 400 mg/L (≈ 1070 µM) in the data set with Enterococcus faecalis [1]. The MIC was 25 mg/L (≈ 66.9 µM) in the data set with Enterococcus faecalis [2]; 400 mg/L (≈ 1070 µM) in the data set on Pseudomonas aeruginosa; 400 mg/L (≈ 1070 µM) against Klebsiella pneumoniae; 400 mg/L (≈ 1070 µM) in the data set with Escherichia coli [3]; 400 mg/L (≈ 1070 µM) in the data set with Escherichia coli [4].
As to `Cc1nc(SCC(=O)c2cccc(Cl)c2)n(Nc2ccccc2)c1C`, the MIC in the data set with Pichia kudriavzevii is 200 mg/L (≈ 538 µM); against Nakaseomyces glabratus, 400 mg/L (≈ 1080 µM); against Listeria monocytogenes, 400 mg/L (≈ 1080 µM); with Candida albicans, 800 mg/L (≈ 2150 µM); with Staphylococcus aureus it was 400 mg/L (≈ 1080 µM); with Enterococcus faecalis [1], 400 mg/L (≈ 1080 µM). Further, the MIC in the data set with Enterococcus faecalis [2] was 400 mg/L (≈ 1080 µM); against Pseudomonas aeruginosa it was 400 mg/L (≈ 1080 µM); in the data set with Klebsiella pneumoniae, 800 mg/L (≈ 2150 µM); with Escherichia coli [3], 400 mg/L (≈ 1080 µM); with Escherichia coli [4], 400 mg/L (≈ 1080 µM).
For `Cc1nc(SCC(=O)c2ccc(Cl)c(Cl)c2)n(Nc2ccccc2)c1C`, the MIC against Pichia kudriavzevii amounted to 200 mg/L (≈ 492 µM); in the data set on Nakaseomyces glabratus, 200 mg/L (≈ 492 µM); with Listeria monocytogenes, 400 mg/L (≈ 984 µM); in the data set on Candida albicans, 400 mg/L (≈ 984 µM); in the data set on Staphylococcus aureus, 800 mg/L (≈ 1970 µM); with Enterococcus faecalis [1], 800 mg/L (≈ 1970 µM). The MIC in the data set on Enterococcus faecalis [2] came out at 200 mg/L (≈ 492 µM); in the data set on Pseudomonas aeruginosa it was 400 mg/L (≈ 984 µM); in the data set on Klebsiella pneumoniae it was 800 mg/L (≈ 1970 µM); in the data set on Escherichia coli [3] it was 800 mg/L (≈ 1970 µM); in the data set with Escherichia coli [4] it was 800 mg/L (≈ 1970 µM).
On to `Cc1ccc(Nn2c(SCC(=O)c3ccccc3)nc(C)c2C)cc1`, for which the MIC against Pichia kudriavzevii came to 400 mg/L (≈ 1140 µM); in the data set with Nakaseomyces glabratus, 400 mg/L (≈ 1140 µM); in the data set on Listeria monocytogenes, 800 mg/L (≈ 2280 µM); against Candida albicans it was 800 mg/L (≈ 2280 µM); in the data set on Staphylococcus aureus it was 800 mg/L (≈ 2280 µM); in the data set with Enterococcus faecalis [1] it was 800 mg/L (≈ 2280 µM). In addition, the MIC came to 400 mg/L (≈ 1140 µM) in the data set on Enterococcus faecalis [2]; 800 mg/L (≈ 2280 µM) in the data set with Pseudomonas aeruginosa; 400 mg/L (≈ 1140 µM) with Klebsiella pneumoniae; 800 mg/L (≈ 2280 µM) in the data set with Escherichia coli [3]; 200 mg/L (≈ 569 µM) against Escherichia coli [4].
Regarding `COc1cccc(C(=O)CSc2nc(C)c(C)n2Nc2ccc(C)cc2)c1`, the MIC against Pichia kudriavzevii stood at 200 mg/L (≈ 524 µM); in the data set with Nakaseomyces glabratus, 400 mg/L (≈ 1050 µM); in the data set with Listeria monocytogenes, 400 mg/L (≈ 1050 µM); against Candida albicans it was 400 mg/L (≈ 1050 µM); against Staphylococcus aureus it was 800 mg/L (≈ 2100 µM); against Enterococcus faecalis [1], 400 mg/L (≈ 1050 µM). The MIC against Enterococcus faecalis [2] was found to be 800 mg/L (≈ 2100 µM); against Pseudomonas aeruginosa it was 800 mg/L (≈ 2100 µM); against Klebsiella pneumoniae, 800 mg/L (≈ 2100 µM); in the data set with Escherichia coli [3], 800 mg/L (≈ 2100 µM); against Escherichia coli [4] it was 200 mg/L (≈ 524 µM).
`COc1ccc(C(=O)CSc2nc(C)c(C)n2Nc2ccc(C)cc2)cc1OC`: in data set [5], the LC50 at 24 h turned out to be 1310 mg/L (≈ 3180 µM). The Activity entry in the data set with Artemia salina [6], with Artemia salina [7] and in the data set with Artemia salina [8] was “Non-toxic” each time. Besides, the MIC in the data set with Pichia kudriavzevii came out at 50 mg/L (≈ 121 µM); against Nakaseomyces glabratus, 100 mg/L (≈ 243 µM); with Listeria monocytogenes, 50 mg/L (≈ 121 µM); against Candida albicans, 100 mg/L (≈ 243 µM); against Staphylococcus aureus it was 400 mg/L (≈ 972 µM); against Enterococcus faecalis [1], 400 mg/L (≈ 972 µM). In addition, the MIC was 100 mg/L (≈ 243 µM) with Enterococcus faecalis [2]; 400 mg/L (≈ 972 µM) in the data set with Pseudomonas aeruginosa; 400 mg/L (≈ 972 µM) against Klebsiella pneumoniae; 200 mg/L (≈ 486 µM) against Escherichia coli [3]; 200 mg/L (≈ 486 µM) in the data set with Escherichia coli [4].
